Assay results as given in ChEMBL document CHEMBL5154783, “Design, synthesis, and evaluation of novel 3-thiophene derivatives as potent fungistatic and fungicidal reagents based on a conformational restriction strategy” (Eur J Med Chem, 2022).
Values after ≈ are worked out from the molar mass of the structure shown. Active and inactive are the calls of the source. The calls are words filed in the database; no cut-off is given here.

How the values were obtained:
Candida albicans [1] = experiment: Antifungal activity against FLC-resistant Candida albicans 100 assessed as fungal growth inhibition by CLSI based serial microbroth dilution method; assay type: functional
Candida albicans [2] = experiment: Antifungal activity against FLC and ITC-resistant Candida albicans 17 assessed as fungal growth inhibition by CLSI based serial microbroth dilution method; assay type: functional
Aspergillus fumigatus = experiment: Antifungal activity against Aspergillus fumigatus CGMCC 3.7795 assessed as fungal growth inhibition by CLSI based serial microbroth dilution method; assay type: functional
Candida albicans [3] = experiment: Antifungal activity against Candida albicans CPCC400616 assessed as fungal growth inhibition by CLSI based serial microbroth dilution method; assay type: functional
Candida albicans [4] = experiment: Antifungal activity against FLC-resistant Candida albicans CaR assessed as fungal growth inhibition by CLSI based serial microbroth dilution method; assay type: functional
Cell membrane [5] = experiment: Disruption of membrane integrity in Candida albicans ATCC SC5314 assessed as cell membrane damage at 16 ug/ml incubated for 48 hrs by transmission electron microscopy; assay type: subcellular; details: dose 16.0 µg/ml
Candida albicans [6] = experiment: Antifungal activity against FLC-resistant Candida albicans 632 assessed as fungal growth inhibition by CLSI based serial microbroth dilution method; assay type: functional
[7] = Cytotoxicity against human HepG2 cells assessed as reduction in cell viability incubated for 96 hrs by MTT assay; assay type: toxicity, cell-based
RAW264.7 = experiment: Cytotoxicity against mouse RAW264.7 cells assessed as reduction in cell viability incubated for 96 hrs by MTT assay; assay type: functional, cell-based; details: RAW264.7, 96 h
Candida albicans [8] = experiment: Antifungal activity against FLC-resistant Candida albicans 904 assessed as fungal growth inhibition by CLSI based serial microbroth dilution method; assay type: functional
MCF7 = experiment: Cytotoxicity against human MCF7 cells assessed as reduction in cell viability incubated for 96 hrs by MTT assay; assay type: functional, cell-based; details: MCF7, 96 h
Cell membrane [9] = experiment: Disruption of membrane integrity in Candida albicans ATCC SC5314 assessed as endogenous substances leakage at 16 ug/ml incubated for 48 hrs by transmission electron microscopy; assay type: subcellular; details: dose 16.0 µg/ml
Candida albicans [10] = experiment: Antibiofilm activity against Candida albicans […] assessed as inhibition of […] metabolism activity in the biofilm measured after 48 hrs by XTT reduction assay; assay type: functional
Candida parapsilosis = experiment: Antifungal activity against Candida parapsilosis GIM 2.190 assessed as fungal growth inhibition by CLSI based serial microbroth dilution method; assay type: functional; details: Lodderomyces parapsilosis
[11] = target: T1, Lanosterol 14-alpha demethylase (Candida albicans (strain SC5314 / ATCC MYA-2876) (Yeast), UniProt P10613); experiment: Inhibition of CYP51 in Candida albicans ATCC SC5314 assessed as lanosterol level at 0.25 ug/ml measured after 18 hrs by GC-MS analysis relative to control; design: scale not given: the % may be the effect or the level left; details: at 0.25 µg/mL
Cryptococcus neoformans = experiment: Antifungal activity against Cryptococcus neoformans CGMCC 2.3161 assessed as fungal growth inhibition by CLSI based serial microbroth dilution method; assay type: functional
Candida albicans [12] = experiment: Antibiofilm activity against Candida albicans […] assessed as inhibition of […] metabolism within the biofilm measured after 6 hrs by XTT reduction assay; assay type: functional
Candida albicans [13] = experiment: Antifungal activity against FLC-resistant Candida albicans 901 assessed as fungal growth inhibition by CLSI based serial microbroth dilution method; assay type: functional
Candida tropicalis = experiment: Antifungal activity against Candida tropicalis CGMCC 2.3739 assessed as fungal growth inhibition by CLSI based serial microbroth dilution method; assay type: functional
Candida albicans [14] = experiment: Antifungal activity against FLC-resistant Candida albicans 311 assessed as fungal growth inhibition by CLSI based serial microbroth dilution method; assay type: functional
Candida albicans [15] = experiment: Antifungal activity against FLC-resistant Candida albicans 103 assessed as fungal growth inhibition by CLSI based serial microbroth dilution method; assay type: functional
Pichia kudriavzevii = experiment: Antifungal activity against Candida krusei GIM 2.1 assessed as fungal growth inhibition by CLSI based serial microbroth dilution method; assay type: functional
[16] = target: T1, Lanosterol 14-alpha demethylase; experiment: Inhibition of CYP51 in Candida albicans ATCC SC5314 assessed as 14alpha-methylergosta-8,24(28)-dien-3beta-6alpha-diol level at 0.25 ug/ml measured after 18 hrs by GC-MS analysis relative to control; design: scale not given: the % may be the effect or the level left; details: at 0.25 µg/mL
[17] = target: T1, Lanosterol 14-alpha demethylase; experiment: Inhibition of CYP51 in Candida albicans ATCC SC5314 assessed as ergosterol level at 0.25 ug/ml measured after 18 hrs by GC-MS analysis (reference value: 96.93 %); design: scale not given: the % may be the effect or the level left; details: at 0.25 µg/mL
Candida albicans [18] = experiment: Antibiofilm activity against Candida albicans […] assessed as inhibition of […] metabolism activity in the biofilm measured after 24 hrs by XTT reduction assay; assay type: functional
[19] = target: T1, Lanosterol 14-alpha demethylase; experiment: Inhibition of CYP51 in Candida albicans ATCC SC5314 assessed as unknown sterol level at 0.25 ug/ml measured after 18 hrs by GC-MS analysis (reference value: 3.07 %); design: scale not given: the % may be the effect or the level left; details: at 0.25 µg/mL
Nakaseomyces glabratus = experiment: Antifungal activity against Candida glabrata clinical isolate assessed as fungal growth inhibition by CLSI based serial microbroth dilution method; assay type: functional
Candida albicans [20] = experiment: Fungicidal activity against Candida albicans CPCC400616 measured after 48 hrs; assay type: functional
Candida albicans [21] = experiment: Antibiofilm activity against Candida albicans […] assessed as inhibition of […] metabolism within the biofilm measured after 18 hrs by XTT reduction assay; assay type: functional
[22] = Cytotoxicity against human THLE-2 cells assessed as reduction in cell viability incubated for 96 hrs by MTT assay; assay type: toxicity, cell-based
Candida albicans [23] = experiment: Antibiofilm activity against Candida albicans […] assessed as inhibition of […] metabolism within the biofilm measured after 3 hrs by XTT reduction assay; assay type: functional
A549 = experiment: Cytotoxicity against human A549 cells assessed as reduction in cell viability incubated for 96 hrs by MTT assay; assay type: functional, cell-based; details: A549, 96 h
Cell membrane [24] = experiment: Disruption of membrane integrity in Candida albicans ATCC SC5314 assessed as cell wall damage at 16 ug/ml incubated for 48 hrs by transmission electron microscopy; assay type: subcellular; details: dose 16.0 µg/ml
Cell membrane [25] = experiment: Disruption of membrane integrity in Candida albicans ATCC SC5314 assessed as rupture of fungal cells at 16 ug/ml incubated for 48 hrs by transmission electron microscopy; assay type: subcellular; details: dose 16.0 µg/ml
Candida albicans [26] = experiment: Antifungal activity against Candida albicans ATCC SC5314 assessed as fungal growth inhibition by CLSI based serial microbroth dilution method; assay type: functional
[27] = target: T1, Lanosterol 14-alpha demethylase; experiment: Inhibition of CYP51 in Candida albicans ATCC SC5314 assessed as eburicol level at 0.25 ug/ml measured after 18 hrs by GC-MS analysis relative to control; design: scale not given: the % may be the effect or the level left; details: at 0.25 µg/mL
[28] = target: T1, Lanosterol 14-alpha demethylase; experiment: Inhibition of CYP51 in Candida albicans ATCC SC5314 assessed as ergosterol level at 0.0075 ug/ml measured after 18 hrs by GC-MS analysis (reference value: 96.93 %); design: scale not given: the % may be the effect or the level left; details: at 0.0075 µg/mL
[29] = Stability of the compound in human plasma assessed as parent compound remaining after […] by LC-MS/MS analysis; assay type: ADME, cell-free; details: read-out: Stability
[30] = target: T1, Lanosterol 14-alpha demethylase; experiment: Inhibition of CYP51 in Candida albicans ATCC SC5314 assessed as unknown sterol level at 0.0075 ug/ml measured after 18 hrs by GC-MS analysis (reference value: 3.07 %); design: scale not given: the % may be the effect or the level left; details: at 0.0075 µg/mL
[31] = Stability of the compound in human plasma assessed as parent compound remaining after 120 hrs by LC-MS/MS analysis; assay type: ADME, cell-free; details: read-out: Stability
[32] = target: T1, Lanosterol 14-alpha demethylase; experiment: Inhibition of CYP51 in Candida albicans ATCC SC5314 assessed as eburicol level at 0.0075 ug/ml measured after 18 hrs by GC-MS analysis relative to control; design: scale not given: the % may be the effect or the level left; details: at 0.0075 µg/mL
Candida albicans [33] = experiment: Fungicidal activity in Candida albicans CPCC400616 assessed as reduction in viable colony formation at 0.25 ug/ml measured within 16 hrs by time kill assay; assay type: functional, organism-based; details: dose 0.25 µg/ml
[34] = target: T1, Lanosterol 14-alpha demethylase; experiment: Inhibition of CYP51 in Candida albicans ATCC SC5314 assessed as 14alpha-methylergosta-8,24(28)-dien-3beta-6alpha-diol level at 0.0075 ug/ml measured after 18 hrs by GC-MS analysis relative to control; design: scale not given: the % may be the effect or the level left; details: at 0.0075 µg/mL
[35] = Stability of the compound in human plasma assessed as half life measured after […] by LC-MS/MS analysis; assay type: ADME, cell-free
[36] = target: T1, Lanosterol 14-alpha demethylase; experiment: Inhibition of CYP51 in Candida albicans ATCC SC5314 assessed as lanosterol level at 0.0075 ug/ml measured after 18 hrs by GC-MS analysis relative to control; design: scale not given: the % may be the effect or the level left; details: at 0.0075 µg/mL

T1 sequence (P10613 whole entry): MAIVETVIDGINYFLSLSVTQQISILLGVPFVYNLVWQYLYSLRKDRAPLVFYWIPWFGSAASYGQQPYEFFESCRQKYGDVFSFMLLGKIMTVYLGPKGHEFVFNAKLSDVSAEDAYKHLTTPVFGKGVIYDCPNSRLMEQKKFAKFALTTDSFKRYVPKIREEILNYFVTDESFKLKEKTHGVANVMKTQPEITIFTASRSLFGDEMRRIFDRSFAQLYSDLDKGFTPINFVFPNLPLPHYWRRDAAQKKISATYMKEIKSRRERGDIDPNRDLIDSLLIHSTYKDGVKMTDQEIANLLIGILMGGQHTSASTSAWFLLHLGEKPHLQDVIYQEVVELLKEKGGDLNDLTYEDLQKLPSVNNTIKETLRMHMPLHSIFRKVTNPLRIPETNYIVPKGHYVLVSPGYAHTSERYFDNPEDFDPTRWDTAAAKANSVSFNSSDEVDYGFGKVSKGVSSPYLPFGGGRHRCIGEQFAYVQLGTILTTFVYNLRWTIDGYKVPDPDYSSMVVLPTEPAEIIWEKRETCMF

SMILES	MIC (Candida albicans [1]) [µg/mL]	MIC (Candida albicans [2]) [µg/mL]	MIC (Aspergillus fumigatus) [µg/mL]	MIC (Candida albicans [3]) [µg/mL]	MIC (Candida albicans [4]) [µg/mL]	Activity (Cell membrane [5])	MIC (Candida albicans [6]) [µg/mL]	IC50 at 96 h [7] [µM]	IC50 (RAW264.7) [µM]	MIC (Candida albicans [8]) [µg/mL]	IC50 (MCF7) [µM]	Activity (Cell membrane [9])	MIC50 (Candida albicans [10]) [µg/mL]	MIC (Candida parapsilosis) [µg/mL]	MIC (Cryptococcus neoformans) [µg/mL]	MIC50 (Candida albicans [12]) [µg/mL]	MIC (Candida albicans [13]) [µg/mL]	MIC (Candida tropicalis) [µg/mL]	MIC (Candida albicans [14]) [µg/mL]	MIC (Candida albicans [15]) [µg/mL]	further results
OC(Cn1cncn1)(Cn1cncn1)c1ccc(F)cc1F [FLUCONAZOLE]	> 64	> 64	> 64	1 (≈ 3.27 µM)	> 64	Active	> 64	> 50	> 50	32 (≈ 104 µM)	> 50	Active	> 64	2 (≈ 6.53 µM)	4 (≈ 13.1 µM)	32 (≈ 104 µM)	64 (≈ 209 µM)	0.5 (≈ 1.63 µM)	> 64	> 64	Activity [11]: 34.42%; MIC (Pichia kudriavzevii): 8 µg/mL (≈ 26.1 µM); Activity [16]: 22.35%; Activity [17]: 3.15%; MIC50 (Candida albicans [18]): > 64 µg/mL; Activity [19]: 1.59%; MIC (Nakaseomyces glabratus): 4 µg/mL (≈ 13.1 µM); MFC (Candida albicans [20]): > 64 µg/mL; MIC50 (Candida albicans [21]): 64 µg/mL (≈ 209 µM); IC50 at 96 h [22]: > 50 µM; MIC50 (Candida albicans [23]): 16 µg/mL (≈ 52.2 µM); IC50 (A549): > 50 µM; Activity (Cell membrane [24]): Active; Activity (Cell membrane [25]): Active; MIC (Candida albicans [26]): 0.5 µg/mL (≈ 1.63 µM); Activity [27]: 29.02%
Fc1cccc(F)c1CC1(Cn2cncn2)COC(c2ccc(-c3ccsc3)cc2)=N1 (stereo unspecified)	1 (≈ 2.29 µM)	4 (≈ 9.16 µM)	16 (≈ 36.7 µM)	0.015 (≈ 0.0344 µM)	0.25 (≈ 0.573 µM)	Active	4 (≈ 9.16 µM)	39.3	32.5	1 (≈ 2.29 µM)	> 50	Active	> 64	0.125 (≈ 0.286 µM)	0.06 (≈ 0.137 µM)	0.125 (≈ 0.286 µM)	0.25 (≈ 0.573 µM)	0.03 (≈ 0.0687 µM)	2 (≈ 4.58 µM)	1 (≈ 2.29 µM)	Activity [28]: 4.61%; remaining [29]: 96.8%; Activity [30]: 1.92%; remaining at 120 h [31]: 98.2%; MIC (Pichia kudriavzevii): 0.125 µg/mL (≈ 0.286 µM); MIC50 (Candida albicans [18]): 16 µg/mL (≈ 36.7 µM); MIC (Nakaseomyces glabratus): 0.06 µg/mL (≈ 0.137 µM); MFC (Candida albicans [20]): 0.25 µg/mL (≈ 0.573 µM); MIC50 (Candida albicans [21]): 2 µg/mL (≈ 4.58 µM); IC50 at 96 h [22]: > 50 µM; Activity [32]: 24.69%; MIC50 (Candida albicans [23]): 0.125 µg/mL (≈ 0.286 µM); IC50 (A549): > 50 µM; Activity (Candida albicans [33]): Active; Activity [34]: 28.2%; half-life [35]: > 4.8 h; Activity (Cell membrane [24]): Active; Activity [36]: 31.91%; Activity (Cell membrane [25]): Active; MIC (Candida albicans [26]): 0.015 µg/mL (≈ 0.0344 µM)
